Laboratory results published in patent US20240360114A1 (SIRONAX LTD., priority 2021, published 2024).

System: HT-1080 cells
Test: HT-1080 cell viability assay (ferroptosis induced by RSL3, Cell Titer-Glo)
Type: cell-based
Settings: Homo sapiens, HT-1080, 20 h, ferroptosis inducer RSL3, 20 hours, ferroptosis inhibitory activity, Table 2
Outline: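 Cells seeded overnight, then co-treated with RSL3 and compound (3-fold, 10-point dilution, top 1.1 μM) for 20 hours. Viability by CellTiter-Glo luminescence, normalized to untreated controls; EC50 from sigmoidal non-linear regression.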

Row | Structure (SMILES) | EC50
1 | Cc1nc(N2CCC(C(F)(F)F)CC2)ccc1NC1CCC(CNC(=O)C2CNC(=O)C2)CC1 (centres unmarked) [Compound 377, N-((4-((2-methyl-6-(4-(trifluoromethyl)piperidin-1-yl)pyridin-3-yl)amino)cyclohexyl)methyl)-5-oxopyrrolidine-3-carboxamide] | 0.0001 to 0.1 µM
2 | NC(=O)C1CCC(Nc2ccc(N3CCC(C(F)(F)F)CC3)cc2)CC1 (centres unmarked) [Compound 10, 4-((4-(4-(trifluoromethyl)piperidin-1-yl)phenyl)amino)cyclohexane-1-carboxamide] | 0.0001 to 0.1 µM
3 | CNCC1CCC(Nc2ccc(C(C)(C)C)cc2)C1 (centres unmarked) [Compound 263, 4-(tert-butyl)-N-(3-((methylamino)methyl)cyclopentyl)aniline] | 0.1 to 1 µM
4 | CCCNc1ccc(N2CCC(C(F)(F)F)CC2)cc1 [Compound 14, N-propyl-4-(4-(trifluoromethyl)piperidin-1-yl)aniline] | 0.0001 to 0.1 µM
5 | CC(C)C1CCN(c2ncc(NC3CCC(CN)C3)cn2)CC1 (centres unmarked) [Compound 48, N-(3-(aminomethyl)cyclopentyl)-2-(4-isopropylpiperidin-1-yl)pyrimidin-5-amine] | 0.0001 to 0.1 µM
6 | COCC1CCC(Nc2ccc(C3CCC(C)(C)CC3)cc2)CC1 (centres unmarked) [Compound 75] | 0.1 to 1 µM
7 | NCCC1CCC(Nc2ccc3c(c2)CCC3)CC1 (centres unmarked) [Compound 264, N-(4-(2-aminoethyl)cyclohexyl)-2,3-dihydro-1H-inden-5-amine] | 0.0001 to 0.1 µM

Further lines, results first:

Row | EC50 | Structure (SMILES)
8 | 0.0001 to 0.1 µM | CCc1nc(N2C[C@@H](C)O[C@@H](C)C2)ccc1NC[C@H]1CC[C@H](N)CC1 [Compound 544, N-(((1r,4R)-4-aminocyclohexyl)methyl)-6-((2S,6R)-2,6-dimethylmorpholino)-2-ethylpyridin-3-amine]
9 | 0.0001 to 0.1 µM | Cc1ccc(NC[C@H]2CC[C@H](N)CC2)cc1C [Compound 316, N-(((1r,4r)-4-aminocyclohexyl)methyl)-3,4-dimethylaniline]
10 | 0.0001 to 0.1 µM | Cc1cc(N2CCC(C(F)(F)F)CC2)ccc1NC1CCC(N)CC1 (centres unmarked) [Compound 69, N1-(2-methyl-4-(4-(trifluoromethyl)piperidin-1-yl)phenyl)cyclohexane-1,4-diamine]
11 | 0.0001 to 0.1 µM | CC1CN(c2ccc(NC[C@H]3CC[C@H](N)CC3)c(Cl)c2)CC(C)O1 (some centres unmarked) [Compound 483, N-(((1r,4r)-4-aminocyclohexyl)methyl)-2-chloro-4-(2,6-dimethylmorpholino) aniline]
12 | 0.0001 to 0.1 µM | Cc1cc(N2CCC(C(F)(F)F)CC2)c(Cl)cc1NC1CCC(N)CC1 (centres unmarked) [Compound 56, N1-(5-chloro-2-methyl-4-(4-(trifluoromethyl)piperidin-1-yl)phenyl)cyclohexane-1,4-diamine]
13 | 0.0001 to 0.1 µM | COCCOc1cc(NC2CCC(N)CC2)ccc1C(C)(C)C (centres unmarked) [Compound 301A, N1-(4-(tert-butyl)-3-(2-methoxyethoxy)phenyl)cyclohexane-1,4-diamine]
14 | 0.0001 to 0.1 µM | CC1CN(c2ccc(NC[C@H]3CC[C@H](N)CC3)cc2)CC(C)N1CC(F)(F)F (some centres unmarked) [Compound 467, N-(((1r,4r)-4-aminocyclohexyl)methyl)-4-(3,5-dimethyl-4-(2,2,2-trifluoroethyl)piperazin-1-yl)aniline]

Same assay, conditions: Homo sapiens, HT-1080, 20 h, ferroptosis inducer RSL3, 20 hours, ferroptosis inhibitory activity, Table 3

Row | EC50 | Structure (SMILES)
15 | 0.0001 to 0.1 µM | Cc1cc(N2CC(C)N(C(=O)C(F)(F)F)C(C)C2)ccc1NC1CC2(CC(N)C2)C1 (centres unmarked) [Compound 644, 1-(4-(4-((6-aminospiro[3.3]heptan-2-yl)amino)-3-methylphenyl)-2,6-dimethylpiperazin-1-yl)-2,2,2-trifluoroethan-1-one]
16 | 0.0001 to 0.1 µM | CN(C)c1ccc2cc(NC3CC4(CC(N)C4)C3)ccc2c1 (centres unmarked) [Compound 601, N2-(6-aminospiro[3.3]heptan-2-yl)-N^6,N^6-dimethylnaphthalene-2,6-diamine]

Row | Structure (SMILES) | EC50
17 | Cc1nc(N2CC[Si](C)(C)CC2)ccc1NC1CC2(C1)CC(C(N)=O)C2 (centres unmarked) [Compound 615, 6-((6-(4,4-dimethyl-1,4-azasilinan-1-yl)-2-methylpyridin-3-yl)amino)spiro[3.3]heptane-2-carboxamide] | 0.0001 to 0.1 µM
